In US11667602B2, “Compounds and their use” (AstraZeneca AB, priority 2020, dated 2023):
Converted amounts (≈) assume the structure as drawn.

How the values were obtained:
[1] = Human Plasma Protein Binding (Test B); format: in vitro ADME; settings: fraction unbound (fu)
In short: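 Values given as % free (fu) in human plasma, using the method of Wernevik et al. (2020). For compounds tested more than once, the arithmetic mean is given.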

[2] = Human Liver Microsomal Stability (Test C); format: in vitro ADME; settings: human, liver microsomes
In short: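 CLint (μl/min/mg protein) derived from compound depletion in human liver microsomes following a published standardized early-DMPK protocol; replicate determinations given as arithmetic mean.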

[3] = Human Hepatocyte Stability (Test D); format: in vitro ADME; settings: human, cryopreserved pooled human hepatocytes (LiverPool 10-Donor), geometric mean if run multiple times
Description: Human Hepatocyte Stability (Test D)
The metabolic stability of compounds in human hepatocytes was assessed using the following protocol:
1. Prepare 10 mM stock solutions of compound and control compounds in appropriate solvent (DMSO). Place incubation medium (L-15 Medium) in a 37° C. water bath, and allow warming for at least 15 minutes prior to use.
2. Add 80 μL of acetonitrile to each well of the 96-well deep well plate (“Quenching plate”).
3. In a new 96-well plate, dilute the 10 mM test compounds and the control compounds to 100 μM by combining 198 μL of acetonitrile and 2 μL of 10 mM stock solution.
4. Remove a vial of cryopreserved (less than −150° C.) human hepatocytes (LiverPool™ 10-Donor Human hepatocytes obtained from Bioreclamation IVT (Product No. S01205)) from storage, ensuring that vials remain at cryogenic temperatures until thawing process ensues. As quickly as possible, thaw the cells by placing the vial in a 37° C. water bath and gently shaking the vials. Vials should remain in water bath until all ice crystals have dissolved and are no longer visible. After thawing is complete, spray vial with 70% ethanol, transfer the vial to a bio-safety cabinet.
5. Open the vial and pour the contents into the 50 mL conical tube containing thawing medium. Place the 50 mL conical tube into a centrifuge and spin at 100 g for 10 minutes (room temperature).
6. Using Cellometer® Vision, count cells and determine the viable cell density. Cells with poor viability (<80% viability) are not acceptable for use.
7. Transfer 247.5 μL of hepatocytes into each well of a 96-well cell incubation plate. Place the plate on Eppendorf Thermomixer Comfort plate shaker to allow the hepatocytes to warm for 10 minutes.
8. Add 2.5 μL of 100 μM test compound or control compounds into an incubation well containing cells to initiate the reaction.
9. Incubate the plate at 37° C. and 900 rpm on an Eppendorf Thermomixer Comfort plate shaker.
10. Centrifuge the quenching plates for 20 minutes at 4,000 rpm. Transfer 30 μL of supernatant of each compound into a 96-well analysis plate. 4 compounds are pooled together into one cassette. Then dilute the pooled sample by adding of 180 μl of pure water. All incubations are performed in singlicate.
All calculations were carried out using Microsoft Excel. Peak areas were determined from extracted ion chromatograms. In vitro intrinsic clearance (in vitro Clint, in μL/min/10^6 cells) of parent compound was determined by regression analysis of the Ln percent parent disappearance vs. time curve. The in vitro intrinsic clearance (in vitro Clint, in μL/min/10^6 cells) reported in Table 36, and was determined from the slope value using the following equation: in vitro Clint=kV/N
V=incubation volume (0.25 mL);
N=number of hepatocytes per well (0.25×10^6 cells)
Where the assay was run multiple times for the same compound, the geometric mean is reported.

[4] = Rat Hepatocyte Stability (Test E); format: in vitro ADME; settings: rat, hepatocytes, geometric mean if run multiple times
In short: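 Intrinsic clearance in rat hepatocytes, expressed as μl/min/10^6 cells, following the literature integrated DMPK panel method. Repeat determinations combined as geometric mean.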

Solubility (Test F) = format: physicochemical; settings: arithmetic mean if run multiple times
Description: The assay was conducted according to the Solubility Assay described in pages 164-167 of Wernevik, J. et al., “A Fully Integrated Assay Panel for Early Drug Metabolism and Pharmacokinetics Profiling”, Assay and Drug Development Technologies, 2020, 18(4), 157-179. Data are reported in Table 36 as solubility ([…]. Where the assay was run multiple times for the same compound, the arithmetic mean is reported.

human RXFP1 = target: T1, human RXFP1 (Homo sapiens, UniProt Q9HBX9); experiment: RXFP1 Hu cAMP (Test A); format: cell-based; parameters: expressed in transfected cells; host or cells: Jump-In T-REx CHO-K1 cells (ThermoFisher), induced with 10 ng/ml doxycycline for 24 h; settings: RXFP1 Hu cAMP; for EC50: read-out: Test A EC50
T1 sequence (Q9HBX9 1-757): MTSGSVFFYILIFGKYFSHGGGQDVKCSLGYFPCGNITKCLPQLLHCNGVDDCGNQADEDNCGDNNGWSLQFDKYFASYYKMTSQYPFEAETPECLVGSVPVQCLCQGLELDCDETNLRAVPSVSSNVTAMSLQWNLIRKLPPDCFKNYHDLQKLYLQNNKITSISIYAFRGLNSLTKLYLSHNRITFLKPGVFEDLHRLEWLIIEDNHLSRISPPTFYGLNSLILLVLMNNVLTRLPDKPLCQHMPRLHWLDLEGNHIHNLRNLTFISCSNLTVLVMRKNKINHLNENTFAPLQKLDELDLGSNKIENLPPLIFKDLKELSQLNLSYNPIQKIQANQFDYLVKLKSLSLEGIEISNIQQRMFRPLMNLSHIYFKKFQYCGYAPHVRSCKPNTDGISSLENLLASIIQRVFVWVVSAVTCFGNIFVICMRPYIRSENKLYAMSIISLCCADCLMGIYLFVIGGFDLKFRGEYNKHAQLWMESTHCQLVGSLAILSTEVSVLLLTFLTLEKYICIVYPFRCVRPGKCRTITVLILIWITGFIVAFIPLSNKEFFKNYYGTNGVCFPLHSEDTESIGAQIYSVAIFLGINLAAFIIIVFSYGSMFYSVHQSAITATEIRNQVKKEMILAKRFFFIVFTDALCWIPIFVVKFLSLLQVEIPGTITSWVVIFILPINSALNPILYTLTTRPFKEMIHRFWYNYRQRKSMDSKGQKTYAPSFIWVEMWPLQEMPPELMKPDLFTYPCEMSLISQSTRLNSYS
In short: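 Cells: CHO-K1 stably carrying human RXFP1, expressed after 24 h 10 ng/ml doxycycline; 0.5 mM IBMX final, HTRF detection after 2 h at room temperature.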

Structure (SMILES) | Test B Human Plasma Protein Binding (% free) [1] [% free] | microsomal CLint [2] [µL/min/mg] | hepatocyte CLint at 1 µM [3] [µL/min/1e6 cells] | hepatocyte CLint [4] [µL/min/1e6 cells] | solubility (Solubility (Test F)) [µM] | Test A Sinf (human RXFP1) [%] | EC50 (human RXFP1) [nM]
COc1cc(F)c(O[C@H]2CC[C@@](C)(C(=O)O)CC2)cc1C(=O)N[C@@H]1[C@H]2CC[C@H](C2)[C@@H]1C(=O)NCC1CCC1 [Example 2, (1S,4s)-4-(5-(((1S,2R,3S,4R)-3-((cyclobutylmethyl)carbamoyl)bicyclo[2.2.1]heptan-2-yl)carbamoyl)-2-fluoro-4-methoxyphenoxy)-1-methylcyclohexane-1-carboxylic acid] | 1.9 | 14 | 2 | 27 | > 1000 | – | –
COc1cc(F)c(O[C@H]2CC[C@@](C)(C(=O)O)CC2)cc1C(=O)N[C@H]1[C@@H]2CC[C@@H](C2)[C@H]1C(=O)Nc1ccc(F)c(S(F)(F)(F)(F)F)c1 [Example 206, (1R,4s)-4-(2-Fluoro-5-(((1R,2S,3R,4S)-3-((4-fluoro-3-(pentafluoro-λ6-sulfaneyl)phenyl)carbamoyl)bicyclo[2.2.1]heptan-2-yl)carbamoyl)-4-methoxyphenoxy)-1-methylcyclohexane-1-carboxylic acid] | – | 42 | 49 | 14 | 35 (≈ 23.9 µg/mL) | 99 | > 150
COc1cc(F)c(-c2cnc(CCC(=O)O)cn2)cc1C(=O)N[C@@H]1[C@H]2CC[C@H](C2)[C@@H]1C(=O)Nc1cccc(S(=O)(=O)C(F)(F)F)c1 [Example 238] | – | 42 | 13 | 27 | 890 (≈ 592 µg/mL) | 102 | 140
COc1cc(F)c(-c2ccc(CCC(=O)O)cn2)cc1C(=O)N[C@@H]1[C@H]2CC[C@H](C2)[C@@H]1C(=O)Nc1cccc(S(=O)(=O)C(F)(F)F)c1 [Example 242] | – | 110 | 26 | 30 | 900 (≈ 597 µg/mL) | 109 | 200
COc1cc(F)c(-c2ccc(C(=O)O)c(O)c2)cc1C(=O)N[C@@H]1[C@H]2CC[C@H](C2)[C@@H]1C(=O)Nc1cccc(S(=O)(=O)C(F)(F)F)c1 [Example 247] | – | 14 | 9.5 | 12 | 190 (≈ 124 µg/mL) | 104 | 50
COc1cc(F)c(-c2ccc(CCC(N)(CO)CO)c(F)c2)cc1C(=O)N[C@@H]1[C@H]2CC[C@H](C2)[C@@H]1C(=O)Nc1cccc(S(=O)(=O)C(F)(F)F)c1 [Example 266, (1R,2S,3R,4S)-3-(4′-(3-Amino-4-hydroxy-3-(hydroxymethyl)butyl)-3′,6-difluoro-4-methoxy-[1,1′-biphenyl]-3-carboxamido)-N-(3-((trifluoromethyl)sulfonyl)phenyl)bicyclo[2.2.1]heptane-2-carboxamide] | <0.34 | 68 | 9.4 | 8.8 | – | 103 | 110
COc1cc(F)c(-c2ccc(-c3nn[nH]n3)cc2)cc1C(=O)N[C@@H]1[C@H]2CC[C@H](C2)[C@@H]1C(=O)Nc1cccc(S(=O)(=O)C(F)(F)F)c1 [Example 325, (1R,2S,3R,4S)-3-(6-Fluoro-4-methoxy-4′-(1H-tetrazol-5-yl)-[1,1′-biphenyl]-3-carboxamido)-N-(3-((trifluoromethyl)sulfonyl)phenyl)bicyclo[2.2.1]heptane-2-carboxamide] | <0.30 | 18 | 5 | – | 880 (≈ 580 µg/mL) | 109 | 120
COc1cc(F)c(-c2ccc(C(=O)O)cc2)cc1C(=O)Nc1ccccc1C(=O)Nc1cccc(S(=O)(=O)C(F)(F)F)c1 [Example 328, 2′-Fluoro-4′-methoxy-5′-((2-((3-((trifluoromethyl)sulfonyl)phenyl)carbamoyl)phenyl)carbamoyl)-[1,1′-biphenyl]-4-carboxylic acid] | <0.10 | < 3 | 11 | – | – | 117 | 190
COc1cc(F)c(O[C@H]2CC[C@@](C)(C(=O)O)CC2)cc1C(=O)N[C@@H]1CCC[C@@H]1C(=O)Nc1cccc(S(=O)(=O)C(F)(F)F)c1 [Example 351] | – | 64 | 15 | 46 | 590 (≈ 380 µg/mL) | 109 | 18
COc1cc(F)c(O[C@H]2CC[C@@](C)(C(=O)O)CC2)cc1C(=O)N[C@@H]1CCC[C@@H]1C(=O)Nc1ccc(F)c(S(F)(F)(F)(F)F)c1 [Example 352] | 0.26 | – | 13 | 38 | 340 (≈ 223 µg/mL) | 105 | 3
COc1cc(F)c(O[C@H]2CC[C@@H](C(=O)O)CC2)cc1C(=O)N[C@@H]1[C@@H]2C[C@@H]([C@H]3OCO[C@@H]23)[C@@H]1C(=O)Nc1cccc(S(=O)(=O)C(F)(F)F)c1 [Example 461, (1S,4s)-4-(2-Fluoro-4-methoxy-5-(((3aS,4S,5R,6S,7R,7aR)-6-((3-((trifluoromethyl)sulfonyl)phenyl)carbamoyl)hexahydro-4,7-methanobenzo[d][1,3]dioxol-5-yl)carbamoyl)phenoxy)cyclohexane-1-carboxylic acid] | – | 7.5 | 2.9 | 7.4 | 980 (≈ 687 µg/mL) | 100 | 190
